System: Rho kinase (ROK, ROCK)
Experiment: Rho kinase inhibitory activity (ROK activity)
Type: biochemical
Set-up: key: +: active; ++: more active; +++: very active
Conditions: assays conducted at 1-100 μM

ROK activity	SMILES
+	O=C(Cc1ccc(Cl)cc1)Nc1cncc(-c2ccncc2)c1 [Example 1, N-[3,4′]Bipyridinyl-5-yl-2-(4-chloro-phenyl)-acetamide]
+++	Fc1cc(CNc2cccc(-c3ccncc3)c2)ccc1Cl [Example 2, (4-Chloro-3-fluoro-benzyl)-(3-pyridin-4-yl-phenyl)-amine]
+++	Fc1cc(CNc2cncc(-c3ccncc3F)c2)ccc1Cl [Example 3, (4-Chloro-3-fluoro-benzyl)-(3′-fluoro-[3,4′]bipyridinyl-5-yl)-amine]
+	Fc1cc(CNc2cncc(-c3ccnc(Cl)c3)c2)ccc1Cl [Example 4, (2′-Chloro-[3,4′]bipyridinyl-5-yl)-(4-chloro-3-fluoro-benzyl)-amine]
+++	Fc1cc(CNc2cncc(-c3ccncc3Cl)c2)ccc1Cl [Example 5, (3′-Chloro-[3,4′]bipyridinyl-5-yl)-(4-chloro-3-fluoro-benzyl)-amine]
+	Fc1cc(CNc2cncc(-c3ccnc(Cl)c3Cl)c2)ccc1Cl [Example 6, (4-Chloro-3-fluoro-benzyl)-(2′,3′-dichloro-[3,4′]bipyridinyl-5-yl)-amine]
++	Fc1cc(CNc2cncc(-c3cccc4ncccc34)c2)ccc1Cl [Example 7, (4-Chloro-3-fluoro-benzyl)-(5-quinolin-5-yl-pyridin-3-yl)-amine]
+	Fc1cc(CNc2cncc(-c3ccnc(Cl)c3F)c2)ccc1Cl [Example 8, (4-Chloro-3-fluoro-benzyl)-(2′-chloro-3′-fluoro-[3,4′]bipyridinyl-5-yl)-amine]
+++	c1ccc(CNc2cncc(-c3ccncc3)c2)cc1 [Example 9, Benzyl-[3,4′]bipyridinyl-5-yl-amine]
+	Clc1cccc(Cl)c1CNc1cncc(-c2ccncc2)c1 [Example 10, [3,4′]Bipyridinyl-5-yl-(2,6-dichloro-benzyl)-amine]
++	FC(F)(F)c1cc(Cl)ccc1CNc1cncc(-c2ccncc2)c1 [Example 11, [3,4′]Bipyridinyl-5-yl-(4-chloro-2-trifluoromethyl-benzyl)-amine]
+	CC(O)CNc1cc(-c2cncc(NCc3ccc(Cl)cc3)c2)ccn1 (centres unmarked) [Example 12, 1-[5-(4-Chloro-benzylamino)-[3,4′]bipyridinyl-2′-ylamino]-propan-2-ol]
+	CC(C)(C)OC(=O)N1CCCC(CNc2cncc(-c3ccncc3)c2)C1 (centres unmarked) [Example 13, 3-([3,4′]Bipyridinyl-5-ylaminomethyl)-piperidine-1-carboxylic acid tert-butyl ester]
+	CC(C)(C)OC(=O)N1CCC(CNc2cncc(-c3ccncc3)c2)CC1 [Example 14, 4-([3,4′]Bipyridinyl-5-ylaminomethyl)-piperidine-1-carboxylic acid tert-butyl ester]
+	CC(C)(C)OC(=O)N1CCC(Nc2cncc(-c3ccncc3)c2)CC1 [Example 15, 4-([3,4′]Bipyridinyl-5-ylamino)-piperidine-1-carboxylic acid tert-butyl ester]
++	c1cc(-c2cncc(NCC3CCCNC3)c2)ccn1 (centres unmarked) [Example 16, [3,4′]Bipyridinyl-5-yl-piperidin-3-ylmethyl-amine]
++	FC(F)(F)c1cccc(CNc2cncc(-c3ccncc3)c2)c1 [Example 17, [3,4′]Bipyridinyl-5-yl-(3-trifluoromethyl-benzyl)-amine]
+++	FC(F)(F)c1ccc(CNc2cncc(-c3ccncc3)c2)cc1 [Example 18, [3,4′]Bipyridinyl-5-yl-(4-trifluoromethyl-benzyl)-amine]
+++	Fc1cc(Cl)ccc1CNc1cncc(-c2ccncc2)c1 [Example 19, [3,4′]Bipyridinyl-5-yl-(4-chloro-2-fluoro-benzyl)-amine]
+	O=C(Nc1cncc(-c2ccncc2)c1)c1ccc(Cl)cc1 [Example 20, N-[3,4′]Bipyridinyl-5-yl-4-chloro-benzamide]
+	O=S(=O)(Nc1cncc(-c2ccncc2)c1)c1ccc(Cl)cc1 [Example 21, N-[3,4′]Bipyridinyl-5-yl-4-chloro-benzenesulfonamide]
+++	Fc1ccc(CNc2cncc(-c3ccncc3)c2)c(F)c1 [Example 22, [3,4′]Bipyridinyl-5-yl-(2,4-difluoro-benzyl)-amine]

Same assay, conditions: assays conducted at 1-100 μM, listed as N-[3,4′]Bipyridinyl-5-yl-2-(4-chloro-phenyl)-acetamide

ROK activity	SMILES
++	O=C(Cc1ccc(Cl)cc1)Nc1cncc(-c2ccncc2)c1 [Example 1, N-[3,4′]Bipyridinyl-5-yl-2-(4-chloro-phenyl)-acetamide]
